Measurements published in patent US11136370B2, “Compositions and methods for thrombin generation assay” (The Scripps Research Institute, priority 2016, dated 2021).

Columns and labels:
thrombin = thrombin (Homo sapiens, UniProt P00734); conditions: 0.5 nM FIIa, 50 pM rTF, 180 s
Experimental: FVIII activation by stable FXa complexes with TF-FVIIa was tested in reactions containing FVIII, FV and lepirudin with or without TFPIα, with incubation for 30-120 s at 37° C. […] The inhibitory effect of hirugen on FVIIIa generation by FIIa was tested in reactions with 0.5 nM FIIa incubated with 50 pM rTF and FVIII for 180 s at 37° C.

thrombin generation (TG) [1] = experiment: TG in FVII-deficient reconstituted PRP with FVIIa WT or mutants; format: biochemical, human; conditions: FVII-deficient plasma
Experimental: (A) Phospholipid-free assay of FX (1 μM) to FXa conversion by the complex of 2 μM soluble rTF with 10 nM FVIIa WT, T99Y or E154A. (B) FXa generation by 50 pM phospholipid-reconstituted rTF with 200 pM FVIIa WT, T99Y or E154A added to 135 nM FX, 0.7 nM FVIII, 3 nM FV and 200 nM lepirudin (2 min, n=2-3; 4 min, n=4-5; 6 min, n=6-9). (C) WB (representing 2) of FVIII activation in reactions of 50 pM TF, 200 pM FVIIa WT or mutants, 0.7 nM FVIII, 3 nM FV and 200 nM lepirudin without/with 135 nM FX, incubated for 120 s at 37° C. […] (E) FXa generation measured in reactions as in (D) without TFPIα and in the presence of 10 nM FIXa (left, incubation 180 s; n=5-6 except=2 for E154A) or 90 nM FIX (right, incubation for 360 s; n=5-6). […] Differences were evaluated by the ANOVA/Tukey test; results at 4 and 6 min in (B) and in reactions with FIX in (E, right) were analyzed after transformation as y=log 10 y (**P<0.01, ***P<0.001).
Thrombin was quantified with a fluorogenic substrate for calculation of % inhibition. […] Endogenous thrombin potential (ETP, right) was calculated from the area under the TG curve (n=2). […] Differences were evaluated with the ANOVA/Tukey test (performed after log 10 transformation of the data shown in E); *P<0.05, ***P<0.001. […]

thrombin generation (TG) [2] = format: biochemical, human; conditions: 2 μM hirugen, PRP with CTI and anti-FXI MoAb
Experimental: TG in PRP or reconstituted PRP was evaluated as known to those skilled in the art. Native PRP was prepared from blood collected into final 12.9 mM trisodium citrate by centrifugation at 250 g for 10 min at 25° C. The platelet count was adjusted to 180×10^3/μl by dilution with homologous PPP obtained by centrifuging PRP for 10 min at 1,500 g. CTI was added at 30-50 μg/ml depending on calibrated potency as assessed by FXIIa inhibition. Reconstituted PRP was prepared with washed platelets prepared from normal PRP by adding ⅕th volume of acid citrate-dextrose (71 mM citric acid, 85 mM trisodium citrate, and 111 mM dextrose, pH 4.5) and 5 U/ml apyrase; following centrifugation at 1,500 g for 10 minutes at 25° C., the platelet pellet was resuspended into PPP lacking FVII (George King Bio-Medical) or FIX (Haematologic Technologies) to give a final platelet count of 180·103/μl PRP was mixed with varying concentrations of rTF and/or 20 pM FIXa in 96-well microtiter plates. The reaction was started by adding 18 mM CaCl2 with 360 μM of the thrombin substrate benzyloxycarbonyl-glycyl-glycyl-L-arginine coupled to the fluorogenic group 7-amido-4-methylcoumarin (Gly-Gly-Arg-AMC; Bachem Americas, Torrance, Calif.). Fluorescence was measured continuously at 37° C. for up to 40 min in a spectrofluorometer (355/460 nm excitation/emission). The rate of fluorescence intensity increase as a function of time (dF/dt) was calculated with Turbo Delphi 2006 (Borland Software Corporation, Austin, Tex.) and converted to thrombin-equivalent concentration (nM) using a calibration curve. The endogenous thrombin potential (ETP) of samples, i.e. total generated thrombin activity, was determined from the area under the TG curve. When specified, TG was measured with a discontinuous 2-stage assay with a detection limit of 5 pM. For this, TG was induced by 0.15 pM rTF and 18 mM CaCl2 in reconstituted FVII-deficient PRP including 30 μg/ml CTI with 400 pM WT FVIIa or iFVIIa without or with 20 pM FIXa. After incubation for up to 11 min at 37° C., reactions were terminated by adding 20 mM EDTA and generated thrombin was measured using the highly sensitive thrombin substrate H-D-CHA-Ala-Arg-AMC.2AcOH (Pefafluor TH, Pentapharm, Basel, Switzerland) at 50 μM concentration. In other experiments, TG was induced by TFiFVIIa-FXa-TFPI or TF-iFVIIa-FXa-NAPc2. These stable complexes were pre-formed by incubating 5 nM FXa, 10 nM TF, 10 nM iFVIIa and 40 nM TFPI or NAPc2 in the presence of 2.5 mM CaCl2 for 2 min at 37° C. Complexes were added into FVII-deficient PRP, followed by incubation for 8 min at 37° C.
PRP was prepared from blood collected into trisodium citrate (final concentration 0.0129 M) by centrifugation for at 250 g for 10 min at 25° C.; the platelet count was adjusted at 180.103 per μl by diluting with homologous platelet-poor plasma (PPP) obtained by centrifuging PRP for an additional 10 min at 1,500 g. When indicated, CTI was added at 30 to 50 μg/ml depending on calibrated potency measured by FXIIa inhibition. Reconstituted PRP was prepared by adding normal washed platelets into PPP (without or with CTI) lacking FVII, FVIII (both from George King Bio-Medical, Overland Park, Kans.) or FIX (Haematologic Technologies). […] generation in PRP was measured as described by Hemker et al. 53 μl of PRP was mixed in 96-well microtiter plates with 15 μl of a solution containing rTF and/or one of the intrinsic coagulation pathway proteases—FXIIa, FXIa or FIXa—to achieve the indicated final concentrations. Antibodies or inhibitors were also added at this point at the concentration indicated for each specific case. The reaction was started by adding between 15 and 20 μl of 100 mM CaCl2 and 2 mM fluorogenic substrate, benzyloxycarbonyl-glycyl-glycyl-L-arginine-7-amido-4-methylcoumarin (Gly-Gly-Arg-AMC; Bachem Americas, Torrance, Calif.).

Substance: 63-O-Sulfo-Tyr-hirudin [hirugen]
- effect on FVIII activation by thrombin (thrombin): dose-dependently inhibited
- effect on FIXa-initiated TG (thrombin generation (TG) [1]): abolished
- effect on FIXa-dependent TG (thrombin generation (TG) [2]): blocked
- effect on TG by FIXa combined with rTF (thrombin generation (TG) [2]): failed to inhibit
